Experimental findings from paper PMC4280898, “Diazido Mixed-Amine Platinum(IV) Anticancer Complexes Activatable by Visible-Light Form Novel DNA Adducts” (Chemistry (Weinheim an Der Bergstrasse, Germany), 2013) are described below.

One test relates to A2780cis cells. The experiment in a line: SRB proliferation assay for non-light-sensitive complexes, A2780cis. The format is cell-based, human. The following applies: for Resistance factor: A2780cis vs A2780, SRB assay; for IC50: ambient light, 24 h exposure, 72 h recovery, SRB. As to the method: Cytotoxicity of platinum(II) precursors: To investigate the relationship between the Pt^IV diazidodihydroxido complexes and their Pt^II dichlorido analogues trans-[PtCl2(Am1)(Am2)] (where Am=amine), the cytotoxicities of complexes trans-[PtCl2(MA)(Py)] (5) and trans-[PtCl2(MA)(Tz)] (6) towards A2780 and its cisplatin resistant sub-line A2780cis were determined. The toxicity was not photoinduced, as the complexes are not photoactive. Complexes 5 and 6 are highly cytotoxic towards A2780 and A2780cis cells compared to the reported trans-Pt^II compounds.[18]–[22] Complex 5 is about three-times more cytotoxic than complex 6 towards A2780 cells. […]
Cell Culture and Proliferation Assay for Non-light-sensitive Complexes
The A2780 ovarian cell line was obtained from the ECACC (European Collection of Animal Cell Culture, Salisbury, United Kingdom). The cells were maintained in RPMI 1640 media, which was supplemented with 10% foetal calf serum, 1% L-glutamine, and 1% penicillin/streptomycin. All cells were grown at 310 K in an humidified atmosphere containing 5% CO2. Stock solutions of the Pt complexes were freshly prepared in DMSO to assist dissolution and then diluted into saline and medium (maximum final concentration of DMSO 1% and saline 6%). After plating 5000 A2780 cells per well on day 1, Pt complexes were added to the cancer cells on day 3 at concentrations ranging from 0.01 to 100 µM, depending on the preliminary activity data obtained in screening assays. Cells were exposed to the complexes for 24 h, washed with PBS, supplied with fresh medium, and allowed to grow for three doubling times (72 h), and then the protein content (proportional to cell survival) was measured using the sulforhodamine B (SRB) assay.[7] The standard errors are based on two independent experiments of three replicates each.[8]

The next test deals with calf thymus DNA. The experiment in a line: Binding to calf thymus DNA (differential pulse polarography). To be noted: in the dark; ri=0.05, 10 mM NaClO4, 310 K. As to the method: Binding to calf thymus DNA: Samples of double-helical calf thymus DNA (32 μg mL^−1) were treated with the Pt complexes at the ri=0.05 (ri is defined as the molar ratio of free platinum complex to nucleotide phosphates at the onset of incubation with DNA) in NaClO4 (10 mM) and incubated at 310 K in the dark for complexes 5 or 6 (Figure 7 C and D). For complexes 1 or 2, samples were irradiated continuously with 420 nm light for 30 min and then further incubated in the dark for up to 24 h so that the activated forms of the complexes could bind DNA (Figure 7 A and B). The amount of Pt bound to DNA increased with time for all four complexes. […]
the UKS method with the unrestricted PBE1PBE functional was employed. […] Thirty-two singlet and eight triplet excited states with the corresponding oscillator strengths were determined with a Time-dependent Density Functional Theory (TDDFT)[15] calculation. […]
assayed by differential pulse polarography for free, unbound platinum.[16] The amount of platinum bound to DNA was calculated by subtracting the amount of free (unbound) platinum from the total amount of platinum present in the reaction. […]
This fragment contained T7 RNA polymerase promoter (in the upper strand close to its 3'-end). […] The fragments produced in RNA synthesis on the template modified by the platinum complexes were analysed by a 6% polyacrylamide/8M urea sequencing gel. […]

Values joined by “and” are separate entries in the source; they are usually repeats but may differ in a detail not shown here. Identical values can stand only once.

As to `C[NH2+][Pt@SP3-2]([Cl])([Cl])[n+]1ccsc1` [Complex 6, trans-[PtCl2(MA)(Tz)]], in the test with A2780cis cells, the Resistance factor is listed as 1.0 and the concentration for half-maximal inhibition (IC50) (in general, the midpoint of a concentration-inhibition curve) came out at 6.8 ± 0.9 µM. Moreover, the “Pt bound after 24 h” value with calf thymus DNA is 63(±5) % and 63±5%.
In the test on A2780cis cells, `C[NH2+][Pt@SP3-2]([Cl])([Cl])[n+]1ccccc1` [Complex 5, trans-[PtCl2(MA)(Py)]] registered a Resistance factor of 1.25 and an IC50 of 3 ± 0.7 µM. For the same compound, in the test with calf thymus DNA, the “Pt bound after 24 h” value is 80(±5) % and 80±5%.
